This is an account of results in ChEMBL document CHEMBL2150924, “Inhibition of NaV1.6 sodium channel currents by a novel series of 1,4-disubstituted-triazole derivatives obtained via copper-catalyzed click chemistry” (Bioorg Med Chem Lett, 2012).

In test [1] the target is Sodium channel protein type 8 subunit alpha (Rattus norvegicus) (UniProt O88420). Description: Inhibition of rat NaV1.6-mediated current expressed in human HEK293 cells at 10 uM by patch clamp assay. The format is cell-based. (The patch-clamp technique gives a direct electrical read-out from membranes.)
In test [2] the target is Sodium channel protein type 8 subunit alpha (Rattus norvegicus, UniProt O88420). Description: Inhibition of rat NaV1.6-mediated current expressed in human HEK293 cells by patch clamp assay. In kind it is cell-based.
Sodium channel protein type 8 subunit alpha, sequence (O88420 whole entry): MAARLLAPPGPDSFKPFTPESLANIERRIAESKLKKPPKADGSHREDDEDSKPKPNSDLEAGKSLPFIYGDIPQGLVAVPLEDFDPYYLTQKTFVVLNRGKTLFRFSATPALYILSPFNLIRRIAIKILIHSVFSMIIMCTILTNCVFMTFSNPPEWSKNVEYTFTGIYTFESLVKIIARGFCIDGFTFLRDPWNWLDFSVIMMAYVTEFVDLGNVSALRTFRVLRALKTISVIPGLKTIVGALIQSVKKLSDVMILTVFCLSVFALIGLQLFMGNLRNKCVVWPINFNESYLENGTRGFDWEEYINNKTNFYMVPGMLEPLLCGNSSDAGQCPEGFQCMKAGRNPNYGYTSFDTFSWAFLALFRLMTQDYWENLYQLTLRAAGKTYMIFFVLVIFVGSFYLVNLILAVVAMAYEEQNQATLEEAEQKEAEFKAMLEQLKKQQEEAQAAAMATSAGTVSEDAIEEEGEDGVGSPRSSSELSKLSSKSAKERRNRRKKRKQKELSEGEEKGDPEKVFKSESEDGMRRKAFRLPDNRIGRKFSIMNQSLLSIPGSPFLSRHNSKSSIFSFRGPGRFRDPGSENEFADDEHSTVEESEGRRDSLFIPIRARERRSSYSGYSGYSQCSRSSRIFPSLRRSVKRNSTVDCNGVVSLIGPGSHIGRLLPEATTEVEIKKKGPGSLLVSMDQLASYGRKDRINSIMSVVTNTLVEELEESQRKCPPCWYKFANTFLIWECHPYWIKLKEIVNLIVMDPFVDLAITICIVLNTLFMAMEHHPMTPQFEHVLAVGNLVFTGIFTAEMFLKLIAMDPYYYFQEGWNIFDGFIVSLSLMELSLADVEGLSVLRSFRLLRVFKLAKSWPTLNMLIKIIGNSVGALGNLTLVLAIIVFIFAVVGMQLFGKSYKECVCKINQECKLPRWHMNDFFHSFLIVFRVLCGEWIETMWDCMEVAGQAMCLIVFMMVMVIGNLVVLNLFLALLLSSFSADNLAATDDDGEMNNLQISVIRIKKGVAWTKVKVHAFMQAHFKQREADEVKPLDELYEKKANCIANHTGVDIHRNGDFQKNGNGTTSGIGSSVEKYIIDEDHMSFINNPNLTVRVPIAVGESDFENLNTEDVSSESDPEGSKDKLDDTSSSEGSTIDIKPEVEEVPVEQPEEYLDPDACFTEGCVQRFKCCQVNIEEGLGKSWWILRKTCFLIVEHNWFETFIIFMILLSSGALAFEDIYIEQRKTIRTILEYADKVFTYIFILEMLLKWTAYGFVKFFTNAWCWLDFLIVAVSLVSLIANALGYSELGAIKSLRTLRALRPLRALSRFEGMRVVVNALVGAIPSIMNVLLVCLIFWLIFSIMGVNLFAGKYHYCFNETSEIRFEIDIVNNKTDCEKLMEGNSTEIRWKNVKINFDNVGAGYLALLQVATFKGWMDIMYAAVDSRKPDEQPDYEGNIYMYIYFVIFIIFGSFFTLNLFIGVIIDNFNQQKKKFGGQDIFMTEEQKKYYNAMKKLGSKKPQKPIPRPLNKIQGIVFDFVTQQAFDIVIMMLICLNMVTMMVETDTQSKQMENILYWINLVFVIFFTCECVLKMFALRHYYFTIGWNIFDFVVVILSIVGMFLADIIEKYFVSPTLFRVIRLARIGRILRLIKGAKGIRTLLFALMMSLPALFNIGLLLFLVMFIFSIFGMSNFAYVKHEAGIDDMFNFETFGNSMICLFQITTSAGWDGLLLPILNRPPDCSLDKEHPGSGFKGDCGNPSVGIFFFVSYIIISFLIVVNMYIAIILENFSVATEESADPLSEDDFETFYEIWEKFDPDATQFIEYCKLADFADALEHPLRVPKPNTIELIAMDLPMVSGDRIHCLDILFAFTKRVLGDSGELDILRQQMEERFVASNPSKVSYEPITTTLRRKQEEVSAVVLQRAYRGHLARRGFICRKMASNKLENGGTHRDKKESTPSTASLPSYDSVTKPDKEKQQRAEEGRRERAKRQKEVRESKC

Sodium channel protein type 8 subunit alpha (Rattus norvegicus), sequence (O88420 whole entry): as above

In the case of `c1ccc(OCc2cn(-c3ccccc3)nn2)cc1`, the inhibition (in general, the share of the control response that was lost under treatment) in test [1] is 16%. Besides, inhibition in test [2] was half-maximal at 28.5 µM (IC50).
For the compound `c1ccc(Cn2cc(COc3ccccc3)nn2)cc1`, the inhibition in test [1] stood at 11%.
In test [1], `c1ccc(CCn2cc(CCCOc3ccccc3)nn2)cc1` displayed an inhibition of 22.7%. Moreover, the 50% inhibitory concentration (IC50) (commonly the concentration at which inhibition is half-maximal) in test [2] was 52 µM.
For the compound `c1ccc(CCn2cc(-c3ccccc3)nn2)cc1`, the inhibition in test [1] is 11.5%.
Still for that read-out and setting: next, `c1ccc(-c2c[nH]c(-c3ccccc3)n2)cc1`: 16%; `c1ccc(CCn2cc(COc3ccccc3)nn2)cc1`: 8.9%.
For the compound `c1ccc(Cn2cc(CCCOc3ccccc3)nn2)cc1`, the inhibition in test [1] was 26%. The 50% inhibitory concentration (IC50) in test [2] was found to be 31.7 µM.
For the compound `O=C(Cn1cc(CCCOc2ccccc2)nn1)c1ccccc1`, the inhibition in test [1] worked out at 22.7%. Moreover, the 50% inhibitory concentration (IC50) in test [2] is 53.6 µM.
In test [1], `O=C(Cn1cc(-c2ccccc2)nn1)c1ccccc1` had an inhibition of 3.9%.
For `c1ccc(-c2cn(-c3ccccc3)nn2)cc1`, the inhibition in test [1] stood at 6.2%.
With `O=C(Cn1cc(COc2ccccc2)nn1)c1ccccc1`, the inhibition in test [1] amounted to 13.6%.
`COc1ccc(-c2nc(-c3ccccc3)c[nH]2)cc1`: in test [1], the inhibition worked out at 21.7%. The same compound had a 50% inhibitory concentration (IC50) in test [2] of 19.6 µM.
In the case of `c1ccc(OCCCc2cn(-c3ccccc3)nn2)cc1`, the inhibition in test [1] was determined as 5.9%.
As for `c1ccc(Cn2cc(-c3ccccc3)nn2)cc1`, the inhibition in test [1] was found to be 10%. The same compound returned an IC50 in test [2] of 125 µM.
